{
  "source": "patent US8158792B2",
  "about": "“Spiropiperidines for use as tryptase inhibitors” (Janssen Pharmaceutica N.V., priority 2007, dated 2012)",
  "target": "human lung tryptase",
  "test": "β-Tryptase In-Vitro Enzyme Assay",
  "type": "biochemical",
  "settings": "human lung tryptase 1 nM, substrate H-D-HHT-Ala-Arg-pNa 500 μM, pH 7.4, room temperature",
  "method": "The β-tryptase assay was conducted with human lung tryptase (Cortex Biochem #CP3033) in an aqueous buffer (10 mM Tris, 10 mM Hepes, 150 mM NaCl, 0.1% PEG 8000, pH 7.4) using the chromogenic substrate H-D-HHT-Ala-Arg-pNa. […] Percent inhibition was calculated by comparing the initial reaction velocity of samples without inhibitor to those with inhibitor. The initial reaction velocities were analyzed using Microsoft Excel.",
  "data": [
    {"compound": "NCc1ccc2c(c1)C1(CCN(C(=O)c3ccc(C#Cc4ccccc4)o3)CC1)CN2S(=O)(=O)O", "note": "[Cpd 327, 1-(5-phenylethynyl-furan-2-yl)carbonyl-1′-hydroxysulfonyl-5′-aminomethyl-spiro[piperidine-4,3′-(2H)-indole]]", "values": [
      {"measurement": "IC50", "result": 18, "unit": "nM"}
    ]},
    {"compound": "COC(=O)c1cccc(C(=O)N2CC3(CCN(C(=O)c4ccc(C#Cc5ccccc5)o4)CC3)c3cc(CN)ccc32)c1", "note": "[Cpd 328, 1-(5-phenylethynyl-furan-2-yl)carbonyl-1′-(3-methoxycarbonyl-phenyl)carbonyl-5′-aminomethyl-spiro[piperidine-4,3′-(2H)-indole]]", "values": [
      {"measurement": "IC50", "result": 290, "unit": "nM"}
    ]},
    {"compound": "CCOC(=O)C(=O)N1CC2(CCN(C(=O)c3ccc(C#Cc4ccccc4)o3)CC2)c2cc(CN)ccc21", "note": "[Cpd 329, 1-(5-phenylethynyl-furan-2-yl)carbonyl-1′-(2-ethoxy-1,2-dioxo-ethyl)-5′-aminomethyl-spiro[piperidine-4,3′-(2H)-indole]]", "values": [
      {"measurement": "IC50", "result": 44, "unit": "nM"}
    ]},
    {"compound": "NCc1ccc2c(c1)C1(CCN(C(=O)c3ccc(C#Cc4ccccc4)o3)CC1)CN2C(=O)Cc1nnn[nH]1", "note": "[Cpd 330, 1-(5-phenylethynyl-furan-2-yl)carbonyl-1′-(2-1H-tetrazol-5-yl-1-oxo-ethyl)-5′-aminomethyl-spiro[piperidine-4,3′-(2H)-indole]]", "values": [
      {"measurement": "IC50", "result": 25, "unit": "nM"}
    ]},
    {"compound": "NCc1ccc2c(c1)C1(CCN(C(=O)c3ccc(C#Cc4ccccc4)o3)CC1)CN2S(=O)(=O)c1cccc(C(=O)O)c1", "note": "[Cpd 331, 1-(5-phenylethynyl-furan-2-yl)carbonyl-1′-(3-carboxy-phenyl)sulfonyl-5′-aminomethyl-spiro[piperidine-4,3′-(2H)-indole]]", "values": [
      {"measurement": "IC50", "result": 41, "unit": "nM"}
    ]},
    {"compound": "CCOC(=O)CC(NNC)C(=O)N1CC2(CCN(C(=O)c3ccc(C#Cc4ccccc4)o3)CC2)c2cc(CN)ccc21", "note": "(stereo not shown) [Cpd 332, 1-(5-phenylethynyl-furan-2-yl)carbonyl-1′-[4-ethoxy-2-(methylamino)amino-1,4-dioxo-butyl]-5′-aminomethyl-spiro[piperidine-4,3′-(2H)-indole]]", "values": [
      {"measurement": "IC50", "result": 28, "unit": "nM"}
    ]},
    {"compound": "CS(=O)(=O)CC(=O)N1CC2(CCN(C(=O)c3ccc(C#Cc4ccccc4)o3)CC2)c2cc(CN)ccc21", "note": "[Cpd 333, 1-(5-phenylethynyl-furan-2-yl)carbonyl-1′-(methylsulfonylmethyl)carbonyl-5′-aminomethyl-spiro[piperidine-4,3′-(2H)-indole]]", "values": [
      {"measurement": "IC50", "result": 65, "unit": "nM"}
    ]},
    {"compound": "NCc1ccc2c(c1)C1(CCN(C(=O)c3ccc(C#Cc4ccccc4)o3)CC1)CN2C(=O)c1nnn[nH]1", "note": "[Cpd 334, 1-(5-phenylethynyl-furan-2-yl)carbonyl-1′-(1H-tetrazol-5-yl)carbonyl-5′-aminomethyl-spiro[piperidine-4,3′-(2H)-indole]]", "values": [
      {"measurement": "IC50", "result": 47, "unit": "nM"}
    ]},
    {"compound": "NCc1ccc2c(c1)C1(CCN(C(=O)c3ccc(C#Cc4ccccc4)o3)CC1)CN2C(=O)CS(=O)(=O)O", "note": "[Cpd 335, 1-(5-phenylethynyl-furan-2-yl)carbonyl-1′-(hydroxysulfonylmethyl)carbonyl-5′-aminomethyl-spiro[piperidine-4,3′-(2H)-indole]]", "values": [
      {"measurement": "IC50", "result": 20, "unit": "nM"}
    ]},
    {"compound": "Cn1cnc(S(=O)(=O)N2CC3(CCN(C(=O)c4ccc(C#Cc5ccccc5)o4)CC3)c3cc(CN)ccc32)c1", "note": "[Cpd 336, 1-(5-phenylethynyl-furan-2-yl)carbonyl-1′-(1-methyl-imidazol-4-yl)sulfonyl-5′-aminomethyl-spiro[piperidine-4,3′-(2H)-indole]]", "values": [
      {"measurement": "IC50", "result": 28, "unit": "nM"}
    ]},
    {"compound": "NCc1ccc2c(c1)C1(CCN(C(=O)c3ccc(C#Cc4ccccc4)o3)CC1)CN2S(=O)(=O)c1ccc(C(=O)O)o1", "note": "[Cpd 337, 1-(5-phenylethynyl-furan-2-yl)carbonyl-1′-(5-carboxy-furan-2-yl)sulfonyl-5′-aminomethyl-spiro[piperidine-4,3′-(2H)-indole]]", "values": [
      {"measurement": "IC50", "result": 36, "unit": "nM"}
    ]},
    {"compound": "CNNC1CC(S(=O)(=O)N2CC3(CCN(C(=O)c4ccc(C#Cc5ccccc5)o4)CC3)c3cc(CN)ccc32)CS1(=O)=O", "note": "(stereo not shown) [Cpd 338, 1-(5-phenylethynyl-furan-2-yl)carbonyl-1′-[5-(N′-methyl-hydrazino)-1,1-dioxo-3,4,5-trihydro-(2H)-thien-3-yl]sulfonyl-5′-aminomethyl-spiro[piperidine-4,3′-(2H)-indole]]", "values": [
      {"measurement": "IC50", "result": 73, "unit": "nM"}
    ]},
    {"compound": "CC(=O)N1CC2(CCN(C(=O)c3ccc(C#Cc4ccccc4)o3)CC2)c2cc(CN)ccc21", "note": "[Cpd 339, 1-(5-phenylethynyl-furan-2-yl)carbonyl-1′-methylcarbonyl-5′-aminomethyl-spiro[piperidine-4,3′-(2H)-indole]]", "values": [
      {"measurement": "IC50", "result": 15, "unit": "nM"}
    ]},
    {"compound": "CS(=O)(=O)N1CC2(CCN(C(=O)c3ccc(C#Cc4ccccc4)o3)CC2)c2cc(CN)ccc21", "note": "[Cpd 340, 1-(5-phenylethynyl-furan-2-yl)carbonyl-1′-methylsulfonyl-5′-aminomethyl-spiro[piperidine-4,3′-(2H)-indole]]", "values": [
      {"measurement": "IC50", "result": 1.8, "unit": "nM"}
    ]},
    {"compound": "NCc1ccc2c(c1)C1(CCN(C(=O)c3ccc(C#Cc4ccccc4)o3)CC1)CN2S(=O)(=O)c1ccccc1", "note": "[Cpd 341, 1-(5-phenylethynyl-furan-2-yl)carbonyl-1′-phenylsulfonyl-5′-aminomethyl-spiro[piperidine-4,3′-(2H)-indole]]", "values": [
      {"measurement": "IC50", "result": 5.7, "unit": "nM"}
    ]},
    {"compound": "NCc1ccc2c(c1)C1(CCN(C(=O)c3ccc(C#Cc4ccccc4)o3)CC1)CN2S(N)(=O)=O", "note": "[Cpd 342, 1-(5-phenylethynyl-furan-2-yl)carbonyl-1′-aminosulfonyl-5′-aminomethyl-spiro[piperidine-4,3′-(2H)-indole]]", "values": [
      {"measurement": "IC50", "result": 5.2, "unit": "nM"}
    ]},
    {"compound": "COC(=O)CN1CC2(CCN(C(=O)c3ccc(C#Cc4ccccc4)o3)CC2)c2cc(CN)ccc21", "note": "[Cpd 343, 1-(5-phenylethynyl-furan-2-yl)carbonyl-1′-[(methoxycarbonyl)methyl]-5′-aminomethyl-spiro[piperidine-4,3′-(2H)-indole]]", "values": [
      {"measurement": "IC50", "result": 23, "unit": "nM"}
    ]},
    {"compound": "COC(=O)c1cccc(S(=O)(=O)N2CC3(CCN(C(=O)c4ccc(C#Cc5ccccc5)o4)CC3)c3cc(CN)ccc32)c1", "note": "[Cpd 344, 1-(5-phenylethynyl-furan-2-yl)carbonyl-1′-(3-methoxycarbonyl-phenyl)sulfonyl-5′-aminomethyl-spiro[piperidine-4,3′-(2H)-indole]]", "values": [
      {"measurement": "IC50", "result": 23, "unit": "nM"}
    ]},
    {"compound": "COC(=O)c1ccc(S(=O)(=O)N2CC3(CCN(C(=O)c4ccc(C#Cc5ccccc5)o4)CC3)c3cc(CN)ccc32)o1", "note": "[Cpd 345, 1-(5-phenylethynyl-furan-2-yl)carbonyl-1′-(5-methoxycarbonyl-furan-2-yl)sulfonyl-5′-aminomethyl-spiro[piperidine-4,3′-(2H)-indole]]", "values": [
      {"measurement": "IC50", "result": 13, "unit": "nM"}
    ]},
    {"compound": "CCCOc1sc(C(=O)N2CCC3(CC2)CN(S(=O)(=O)O)c2ccc(CN)cc23)c(C)c1Br", "note": "[Cpd 346, 1-(3-methyl-4-bromo-5-propoxy-thien-2-yl)carbonyl-1′-hydroxysulfonyl-5′-aminomethyl-spiro[piperidine-4,3′-(2H)-indole]]", "values": [
      {"measurement": "IC50", "result": 40, "unit": "nM"}
    ]},
    {"compound": "NCc1ccc2c(c1)C1(CCN(C(=O)c3ccc(C#Cc4ccccc4)o3)CC1)CN2S(=O)(=O)c1csc(C(=O)O)c1", "note": "[Cpd 347, 1-(5-phenylethynyl-furan-2-yl)carbonyl-1′-(5-carboxy-thien-3-yl)sulfonyl-5′-aminomethyl-spiro[piperidine-4,3′-(2H)-indole]]", "values": [
      {"measurement": "IC50", "result": 24, "unit": "nM"}
    ]},
    {"compound": "CS(=O)(=O)CS(=O)(=O)N1CC2(CCN(C(=O)c3ccc(C#Cc4ccccc4)o3)CC2)c2cc(CN)ccc21", "note": "[Cpd 348, 1-(5-phenylethynyl-furan-2-yl)carbonyl-1′-(methylsulfonylmethyl)sulfonyl-5′-aminomethyl-spiro[piperidine-4,3′-(2H)-indole]]", "values": [
      {"measurement": "IC50", "result": 24, "unit": "nM"}
    ]},
    {"compound": "CNNC(=O)CS(=O)(=O)N1CC2(CCN(C(=O)c3ccc(C#Cc4ccccc4)o3)CC2)c2cc(CN)ccc21", "note": "[Cpd 349, 1-(5-phenylethynyl-furan-2-yl)carbonyl-1′-(N′-methylhydrazino-carbonylmethyl)sulfonyl-5′-aminomethyl-spiro[piperidine-4,3′-(2H)-indole]]", "values": [
      {"measurement": "IC50", "result": 16, "unit": "nM"}
    ]},
    {"compound": "CSc1sc(C(=O)N2CCC3(CC2)CN(S(=O)(=O)O)c2ccc(CN)cc23)c2ccccc12", "note": "[Cpd 350, 1-(3-methylthio-benzo[c]thien-1-yl)carbonyl-1′-hydroxysulfonyl-5′-aminomethyl-spiro[piperidine-4,3′-(2H)-indole]]", "values": [
      {"measurement": "IC50", "result": 25, "unit": "nM"}
    ]},
    {"compound": "NCc1ccc2c(c1)C1(CCN(C(=O)c3cc(Br)c(Br)s3)CC1)CN2S(=O)(=O)O", "note": "[Cpd 351, 1-(4,5-dibromo-thien-2-yl)carbonyl-1′-hydroxysulfonyl-5′-aminomethyl-spiro[piperidine-4,3′-(2H)-indole]]", "values": [
      {"measurement": "IC50", "result": 68, "unit": "nM"}
    ]},
    {"compound": "NCc1ccc2c(c1)C1(CCN(C(=O)c3ccc(Cl)c(Cl)c3)CC1)CS2(=O)=O", "note": "[Cpd 352, 1-(3,4-dichlorophenyl)carbonyl-5′-aminomethyl-spiro[piperidine-4,3′-(1,1-dioxo-(2H)-benzo[b]thiophene)]]", "values": [
      {"measurement": "IC50", "result": 5300, "unit": "nM"}
    ]},
    {"compound": "NCc1ccc2c(c1)C1(CCN(C(=O)c3ccc(Cl)c(Cl)c3)CC1)CS2", "note": "[Cpd 353, 1-(3,4-dichlorophenyl)carbonyl-5′-aminomethyl-spiro[piperidine-4,3′-(2H)-benzo[b]thiophene]]", "values": [
      {"measurement": "IC50", "result": 37, "unit": "nM"}
    ]},
    {"compound": "NCc1ccc2c(c1)C1(CCN(C(=O)CC(c3ccccc3)c3ccccc3)CC1)CO2", "note": "[Cpd 354, 1-(2,2-diphenylethyl)carbonyl-5′-aminomethyl-spiro[piperidine-4,3′-(2H)-benzo[b]furan]]", "values": [
      {"measurement": "IC50", "result": 430, "unit": "nM"}
    ]},
    {"compound": "NCc1ccc2c(c1)C1(CCN(C(=O)CC3c4ccccc4-c4ccccc43)CC1)CO2", "note": "[Cpd 355, 1-(9H-fluoren-9-ylmethyl)carbonyl-5′-aminomethyl-spiro[piperidine-4,3′-(2H)-benzo[b]furan]]", "values": [
      {"measurement": "IC50", "result": 290, "unit": "nM"}
    ]},
    {"compound": "Cc1ccsc1/C=C/C(=O)N1CCC2(CC1)COc1ccc(CN)cc12", "note": "[Cpd 356, (E)-1-(3-methyl-thien-2-ylethenyl)carbonyl-5′-aminomethyl-spiro[piperidine-4,3′-(2H)-benzo[b]furan]]", "values": [
      {"measurement": "IC50", "result": 180, "unit": "nM"}
    ]},
    {"compound": "NCc1ccc2c(c1)C1(CCN(C(=O)c3cc(-c4ccc(Cl)cc4)cs3)CC1)CO2", "note": "[Cpd 357, 1-[4-(4-chloro-phenyl)-thien-2-yl]carbonyl-5′-aminomethyl-spiro[piperidine-4,3′-(2H)-benzo[b]furan]]", "values": [
      {"measurement": "IC50", "result": 280, "unit": "nM"}
    ]}
  ]
}
